From US12195551B2, “Combination of an ErbB-2/ErbB-3 bispecific antibody with endocrine therapy for breast cancer” (Merus N.V., priority 2017, dated 2025)

What was measured:
[1] = system: HER2; assay: Reverse phase protein array (RPPA) in MCF-7 tumor xenografts: HER2; format: in vivo, human; conditions: vs vehicle group, one-way ANOVA
Excerpt: FIG. 9. Reverse phase protein array (RPPA) in MCF-7 tumor xenografts treated with vehicle, MCLA-128, Fulvestrant, Tamoxifen, MCLA-128+ Fulvestrant or MCLA-128+ Tamoxifen. Proteins detected in this assay included (phospho)-Akt and (phospho)-HER3 (full data provided in Appendix 4). One-way ANOVA compared levels in all tumors derived from treatment groups with those derived from the PBS group. ** indicates P<0.01.
Tumors from groups 1-6 were collected when they had reached the maximum tolerated volume, or at the end of the experiment at day 39, which was 10 days after the last dose. Per treatment group, six tumors were included in the Reverse phase protein array (RPPA). The selection of tumors was made so that the average tumor size of the 6 specimens was close to that of the whole group. RPPA analysis was performed as follows: tumors were sectioned and placed on immunohistochemistry slides. Stromal and inflammatory content was macrodissected to purify for tumors cells. Protein lysates were prepared and protein content was quantified. […] Reverse phase protein array (RPPA) data were analyzed using one-way ANOVA to detect significant differences between the treatment groups and the vehicle group. […] Total ERK levels were increased in the single agent groups only, no differences were measured in the other groups or in the phosphorylated ERK analysis. […]

[2] = system: MCF-7 human breast carcinoma; assay: Efficacy in nude mouse xenograft model of MCF-7 human breast carcinoma; format: in vivo
Experimental: MCLA-128 was evaluated as monotherapy and in combination with the SERM Tamoxifen and SERD Fulvestrant (Faslodex®) for efficacy in a nude mouse xenograft model of estrogen responsive MCF-7 human breast carcinoma. The study design also included tumor collection for downstream analysis.
Treatments began on D1 in mice with established subcutaneous MCF-7 tumors. The study endpoint was intended to be a tumor volume endpoint of 1000 mm3 45 days, whichever came first. […] Tumor regressions, mean tumor growth, and treatment tolerability also were considered.
The animals were fed ad libitum water (reverse osmosis, 1 ppm Cl) and NIH 31 Modified and Irradiated Lab Diet® consisting of 18.0% crude protein, 6.0% crude fat, and 5.0% crude fiber. The mice were housed on irradiated Enrich-o'Cobs™ Laboratory Animal Bedding in static 85 microisolators on a 12-hour light cycle at […] (68-72° F.) and 40-60% humidity.
Three days prior to tumor cell implantation, estrogen pellets (0.36 mg estradiol, 60-day release, Innovative Research of America, Sarasota, FL) were implanted subcutaneously between the scapulae of all test animals using a sterilized trocar.
Xenografts were initiated with cultured MCF-7 human breast carcinoma cells. Tumor cells were grown to mid-log phase in RPMI-1640 medium containing 10% fetal bovine serum, 100 units/mL penicillin G, 100 μg/mL streptomycin sulfate, 2 mM glutamine, 10 mM HEPES, 0.075% sodium bicarbonate and 25 μg/mL gentamicin. On the day of tumor cell implant, the cells were trypsinized, pelleted, and resuspended in phosphate buffered saline (PBS) at a concentration of 1×10e8 cells/mL. Each test mouse received 1×10e7 MCF-7 cells implanted subcutaneously in the right flank, and tumor growth was monitored as their mean volume approached the desired 100 to 150 mm3 range.
Nineteen days after tumor cell implantation, designated as D1 of the study, the mice were placed into six groups of 15 animals and four groups of six animals, Individual tumor volumes ranged from 75 to 196 mm3 and group mean tumor volumes of 134-137 mm3 on D1. Tumor weight was estimated with the assumption that 1 mg is equivalent to 1 mm3 of tumor volume.
MCLA-128 was stored at 4° C., was provided pre-formulated at 2.5 mg/mL and ready to dose as 25 mg/kg in a 10 mL/kg dose volume, and was protected from light during storage and handling. Tamoxifen (Sigma-25 Aldrich. Lot No. WXBB5732V) was received as a powder and was stored at 4° C. protected from light. Each week, a 5 mg/mL dose solution was prepared in corn oil, and each mouse received 0.2 mL for a dose of 1 mg/animal. The dose solution was stored at 4° C. Fulvestrant tradename Faslodex® (AstraZeneca, Lot No. LV032, LW466, and LX432) was received as 50 mg/mL stock solution that was stored at 4° C. Each dosing day, the stock was diluted in corn oil to 25 mg/mL, and each mouse received 0.2 mL for a dose of 5 mg/animal.
Groups 1 and 7 served as controls for efficacy and sampling, respectively, and received MCLA-128 vehicle intraperitoneally (i.p.) on D1, 4, 8, 11, 15, 18, 22, 25, and 29 and corn oil subcutaneously (s.c.) every other day for fifteen doses (qod×15). Groups 2 and 8 were administered MCLA-128 at 25 mg/kg, i.p., on the same schedule as MCLA-128 vehicle. Groups 3 and 9 were administered Faslodex® at 5.0 mg/animal, s.c., once weekly for five weeks (qwk×5). Group 4 was administered Tamoxifen at 1 mg/animal, s.c., qod×15. Groups 5 and 10 received MCLA-128 and Faslodex®, on the regimens described above. Group 6 received MCLA-128 and Tamoxifen on the regimens described above.
MCLA-128 was administered at a 10 mL/kg dose volume, scaled to the individual body weight of each animal.

[3] = system: HBCx-34 PDX model; conditions: model characterisation; cited from earlier work

CC/C(=C(\c1ccccc1)c1ccc(OCCN(C)C)cc1)c1ccccc1 [Tamoxifen]
Total HER2 levels (RPPA) [1]: significantly increased | % TGI (tumor growth inhibition) ([2]; D25, relative to the control group, MCLA-128 25 mg/kg i.p., Faslodex 5.0 mg/animal, Tamoxifen 1 mg/animal): 69% | median tumor volume ([2]; D25, MCLA-128 25 mg/kg i.p., Faslodex 5.0 mg/animal s.c. qwk×5, Tamoxifen 1 mg/animal s.c. qod×15): 184 mm3 | P relative to the control group ([2]; D25 tumor volumes, Mann-Whitney test): < 0.001 | anti-tumor efficacy / survival benefit (in words) ([2]; MCF-7 nude mouse xenograft model): significantly reduced tumor growth | response of the HBCx-34 PDX model [3]: responder

CCCCCOC(=O)Nc1nc(=O)n([C@@H]2O[C@H](C)[C@@H](O)[C@H]2O)cc1F [Capecitabine]
response of the HBCx-34 PDX model [3]: responder

CC(=O)O[C@@]12CO[C@@H]1C[C@H](O)[C@@]1(C)C(=O)[C@H](O)C3=C(C)[C@@H](OC(=O)[C@H](O)[C@@H](NC(=O)OC(C)(C)C)c4ccccc4)C[C@@](O)([C@@H](OC(=O)c4ccccc4)[C@H]21)C3(C)C [Docetaxel]
response of the HBCx-34 PDX model [3]: responder
